The target of the assay is T1, REV-ERBα LBD (human; residues 281-614 Δ324-422) (Homo sapiens, UniProt P20393, DEL324-422).
T1 construct: 6×Histag-REV-ERBα LBD (human; residues 281-614 Δ324-422); made in house; host or cells: Escherichia coli
T1 sequence (P20393 with tags, fused parts or gaps DEL324-422): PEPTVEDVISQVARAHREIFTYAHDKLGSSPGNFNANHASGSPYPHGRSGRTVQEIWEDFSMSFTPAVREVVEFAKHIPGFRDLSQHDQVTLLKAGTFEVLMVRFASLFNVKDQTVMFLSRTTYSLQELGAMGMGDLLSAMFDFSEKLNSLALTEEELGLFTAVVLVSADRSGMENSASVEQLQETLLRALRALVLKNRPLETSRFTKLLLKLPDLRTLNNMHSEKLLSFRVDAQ
T1 sequence (Q9Y618 2335-2356 partner limits assumed): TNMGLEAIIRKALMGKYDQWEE
Kind of assay: TR-FRET corepressor interaction assay (REV-ERBα LBD, FITC-SMRT peptide). It is filed as biochemical. The note with it: FITC-SMRT peptide, read-out: REVERBα agonism (EC50 class, FRET assay). Put shortly:
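Compound serial dilutions (in DMSO, triplicate) incubated 2 h at 4 °C; Tb donor excited at 340 nm, emission read at 495 nm and FITC acceptor at 520 nm. TR-FRET ratio (520/495 nm) plotted against ligand concentration and fitted to a sigmoidal dose-response curve.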
As to `CC(C)(C)Cn1cc([C@H](NS(=O)(=O)C2CCC2)C(F)(F)F)c2cc(F)c(-c3ncccc3C(F)(F)F)cc21` [Example 444, (S)—N-(2,2,2-trifluoro-1-(5-fluoro-1-neopentyl-6-(3-(trifluoromethyl)pyridin-2-yl)-1H-indol-3-yl)ethyl)cyclobutanesulfonamide], the concentration giving a half-maximal response (EC50) was below 500 nM. As for `[2H]C(C)(NS(=O)(=O)C1CCC1)c1cn(CC(C)(C)C)c2cc(-c3ccccc3C(F)(F)F)ccc12` (stereo not shown) [Example 445, N-(1-(1-neopentyl-6-(2-(trifluoromethyl)phenyl)-1H-indol-3-yl)ethyl-1-d)cyclobutanesulfonamide], the EC50 is below 500 nM. As for `CCC(C)n1cc([C@H](NS(=O)(=O)C2CCC2)C(F)(F)F)c2ccc(-c3ccccc3C(F)(F)F)cc21` (stereo partly drawn) [Example 446, N-((1S)-1-(1-(sec-butyl)-6-(2-(trifluoromethyl)phenyl)-1H-indol-3-yl)-2,2,2-trifluoroethyl)cyclobutanesulfonamide], the EC50 was below 500 nM. Take `CC(C)Cn1cc([C@H](NS(=O)(=O)C2CC2)C(F)(F)F)c2cc(F)c(-c3ccnc4c3CCCC4)cc21` [Example 454, N-[(1S)-2,2,2-trifluoro-1-[5-fluoro-1-isobutyl-6-(5,6,7,8-tetrahydroquinolin-4-yl)indol-3-yl]ethyl]cyclopropanesulfonamide]: the EC50 is below 500 nM. In the case of `CC(C)Cn1cc([C@H](NS(=O)(=O)C2CC2)C(F)(F)F)c2cc(F)c(-c3ccncn3)cc21` [Example 455, (S)—N-(2,2,2-trifluoro-1-(5-fluoro-1-isobutyl-6-(pyrimidin-4-yl)-1H-indol-3-yl)ethyl)cyclopropanesulfonamide], the EC50 is below 500 nM.

Turning to `Cc1cn[nH]c1-c1cc2c(cc1F)c([C@H](NS(=O)(=O)C1CC1)C(F)(F)F)cn2CC(C)C` [Example 456, (S)—N-(2,2,2-trifluoro-1-(5-fluoro-1-isobutyl-6-(4-methyl-1H-pyrazol-5-yl)-1H-indol-3-yl)ethyl)cyclopropanesulfonamide], the EC50 was in the range of 500 to 3000 nM. The figure for `CC(C)Cn1cc([C@H](NS(=O)(=O)C2CC2)C(F)(F)F)c2cc(F)c(-c3cscn3)cc21` [Example 457, N-[(1S)-2,2,2-trifluoro-1-(5-fluoro-1-isobutyl-6-thiazol-4-yl-indol-3-yl)ethyl]cyclopropanesulfonamide] is 500 to 3000 nM; for `CC(C)(C)Cn1cc([C@H](NS(=O)(=O)C2CC2)C(F)(F)F)c2cc(C(F)(F)F)c(-c3ccncc3)cc21` [Example 458, (S)—N-(2,2,2-trifluoro-1-(1-neopentyl-6-(pyridin-4-yl)-5-(trifluoromethyl)-1H-indol-3-yl)ethyl)cyclopropanesulfonamide] it is 500 to 3000 nM; for `CC(C)(C)Cn1cc([C@H](NS(=O)(=O)C2COC2)C(F)(F)F)c2cc(F)c(-c3ccccc3C(F)(F)F)cc21` [Example 459, (S)—N-(2,2,2-trifluoro-1-(5-fluoro-1-neopentyl-6-(2-(trifluoromethyl)phenyl)-1H-indol-3-yl)ethyl)oxetane-3-sulfonamide] it is below 500 nM. The figure for `CC(C)(C)Cn1cc([C@H](NS(=O)(=O)C2CC2)C(F)(F)F)c2ccc(-c3c(F)cccc3C#N)cc21` [Example 460, (S)—N-(1-(6-(2-cyano-6-fluorophenyl)-1-neopentyl-1H-indol-3-yl)-2,2,2-trifluoroethyl)cyclopropanesulfonamide] is below 500 nM; for `CC(C)(C)Cn1cc([C@H](NS(=O)(=O)C2CCOC2)C(F)(F)F)c2cc(F)c(-c3ccccc3C(F)(F)F)cc21` (stereo partly drawn) [Example 461, N—((S)-2,2,2-trifluoro-1-(5-fluoro-1-neopentyl-6-(2-(trifluoromethyl)phenyl)-1H-indol-3-yl)ethyl)tetrahydrofuran-3-sulfonamide] it is above 3000 nM; for `CC(C)(C)Cn1cc([C@H](NS(=O)(=O)C2CC2)C(F)(F)F)c2ccc(-c3ccccc3C#N)cc21` [Example 462, (S)—N-(1-(6-(2-cyanophenyl)-1-neopentyl-1H-indol-3-yl)-2,2,2-trifluoroethyl)cyclopropanesulfonamide] it is below 500 nM. As for `Cc1cccc(C(F)(F)F)c1-c1ccc2c([C@H](NS(=O)(=O)C3CC3)C(F)(F)F)cn(CC(C)(C)C)c2c1` [Example 463, (S)—N-(2,2,2-trifluoro-1-(6-(2-methyl-6-(trifluoromethyl)phenyl)-1-neopentyl-1H-indol-3-yl)ethyl)cyclopropanesulfonamide], the EC50 is below 500 nM. The figure for `CC(C)(C)Cn1cc([C@H](NS(=O)(=O)C2CC2)C(F)(F)F)c2ccc(-c3c(F)cccc3Cl)cc21` [Example 464, (S)—N-(1-(6-(2-chloro-6-fluorophenyl)-1-neopentyl-1H-indol-3-yl)-2,2,2-trifluoroethyl)cyclopropanesulfonamide] is below 500 nM. The figure for `CC(C)(C)Cn1cc([C@H](NS(=O)(=O)C2CC2)C(F)(F)F)c2cc(F)c(-c3cscn3)cc21` [Example 465, N-[(1S)-1-[1-(2,2-dimethylpropyl)-5-fluoro-6-thiazol-4-yl-indol-3-yl]-2,2,2-trifluoro-ethyl]cyclopropanesulfonamide] is 500 to 3000 nM; for `CC(C)(C)Cn1cc([C@H](NS(=O)(=O)C2CC2)C(F)(F)F)c2ccc(-c3cccnc3C#N)cc21` [Example 466, (S)—N-(1-(6-(2-cyanopyridin-3-yl)-1-neopentyl-1H-indol-3-yl)-2,2,2-trifluoroethyl)cyclopropanesulfonamide] it is below 500 nM.

Regarding `CC(C)(C)Cn1cc([C@H](NS(=O)(=O)C2CC2)C(F)(F)F)c2ccc(-c3ncccc3Cl)cc21` [Example 467, (S)—N-(1-(6-(3-chloropyridin-2-yl)-1-neopentyl-1H-indol-3-yl)-2,2,2-trifluoroethyl)cyclopropanesulfonamide], the EC50 fell in the range of 500 to 3000 nM. In the case of `CC(C)(C)Cn1cc([C@H](NS(=O)(=O)C2CC2)C(F)(F)F)c2ccc(-c3ncccc3C#N)cc21` [Example 468, (S)—N-(1-(6-(3-cyanopyridin-2-yl)-1-neopentyl-1H-indol-3-yl)-2,2,2-trifluoroethyl)cyclopropanesulfonamide], the EC50 was below 500 nM. The figure for `CC(C)(C)Cn1cc([C@H](NS(=O)(=O)C2CC2)C(F)(F)F)c2ccc(-c3ccccn3)cc21` [Example 469, (S)—N-(2,2,2-trifluoro-1-(1-neopentyl-6-(pyridin-2-yl)-1H-indol-3-yl)ethyl)cyclopropanesulfonamide] is 500 to 3000 nM. Consider `CC(C)(C)Cn1cc([C@H](NS(=O)(=O)C2CC2)C(F)(F)F)c2ccc(-c3c(Cl)cncc3Cl)cc21` [Example 470, (S)—N-(1-(6-(3,5-dichloropyridin-4-yl)-1-neopentyl-1H-indol-3-yl)-2,2,2-trifluoroethyl)cyclopropanesulfonamide], for which the EC50 is below 500 nM.

As for `CN(C)C(=O)c1ccccc1-c1ccc2c([C@H](NS(=O)(=O)C3CC3)C(F)(F)F)cn(CC(C)(C)C)c2c1` [Example 471, (S)-2-(3-(1-(cyclopropanesulfonamido)-2,2,2-trifluoroethyl)-1-neopentyl-1H-indol-6-yl)-N,N-dimethylbenzamide], the EC50 was in the range of 500 to 3000 nM.

On to `CC(C)(C)Cn1cc([C@H](NS(=O)(=O)C2CC2)C(F)(F)F)c2ccc(-c3ccc(F)cc3C#N)cc21` [Example 472, (S)—N-(1-(6-(2-cyano-4-fluorophenyl)-1-neopentyl-1H-indol-3-yl)-2,2,2-trifluoroethyl)cyclopropanesulfonamide], for which the EC50 was below 500 nM. The figure for `CC(C)(C)Cn1cc([C@H](NS(=O)(=O)C2CC2)C(F)(F)F)c2ccc(-c3cccc(C#N)c3F)cc21` [Example 473, (S)—N-(1-(6-(3-cyano-2-fluorophenyl)-1-neopentyl-1H-indol-3-yl)-2,2,2-trifluoroethyl)cyclopropanesulfonamide] is 500 to 3000 nM. The figure for `CC(C)(O)Cn1cc([C@H](NS(=O)(=O)C2CC2)C(F)(F)F)c2cc(F)c(-c3ccccc3C(F)(F)F)cc21` [Example 474, N-[(1S)-2,2,2-trifluoro-1-[5-fluoro-1-(2-hydroxy-2-methyl-propyl)-6-[2-(trifluoromethyl)phenyl]indol-3-yl]ethyl]cyclopropanesulfonamide] is 500 to 3000 nM; for `COC(C)(C)Cn1cc([C@H](NS(=O)(=O)C2CC2)C(F)(F)F)c2cc(F)c(-c3ccccc3C(F)(F)F)cc21` [Example 475, N-[(1S)-2,2,2-trifluoro-1-[5-fluoro-1-(2-methoxy-2-methyl-propyl)-6-[2-(trifluoromethyl)phenyl]indol-3-yl]ethyl]cyclopropanesulfonamide] it is below 500 nM; for `N#CC1(Cn2cc([C@H](NS(=O)(=O)C3CC3)C(F)(F)F)c3cc(F)c(-c4ccccc4C(F)(F)F)cc32)CC1` [Example 476, N-[(1S)-1-[1-[(1-cyanocyclopropyl)methyl]-5-fluoro-6-[2-(trifluoromethyl)phenyl]indol-3-yl]-2,2,2-trifluoro-ethyl]cyclopropanesulfonamide] it is 500 to 3000 nM. In the case of `CC(C)(C)Cn1cc([C@H](NS(=O)(=O)C2CC2)C(F)(F)F)c2cc(F)c(-c3cccc4c3CCCC4)cc21` [Example 477, N-[(1S)-1-[1-(2,2-dimethylpropyl)-5-fluoro-6-tetralin-5-yl-indol-3-yl]-2,2,2-trifluoro-ethyl]cyclopropanesulfonamide] it was 500 to 3000 nM. Regarding `CC(C)(O)Cn1cc([C@H](NS(=O)(=O)C2CCC2)C(F)(F)F)c2cc(F)c(-c3ccccc3C(F)(F)F)cc21` [Example 478, N-[(1S)-2,2,2-trifluoro-1-[5-fluoro-1-(2-hydroxy-2-methyl-propyl)-6-[2-(trifluoromethyl)phenyl]indol-3-yl]ethyl]cyclobutanesulfonamide], the EC50 fell in the range of 500 to 3000 nM.

Source of the values: patent US20230339886A1 (University of Florida Research Foundation, Incorporated, priority 2020, published 2023).
